# Assay results: patent US10213394B1, “Composition and method for treating neurological disease” (Osmotica Kereskedelmi és Szolgáltató Korlátolt Felelõsségû …, priority 2018, dated 2019)
# Structures can show the parent of a compound that is named as a salt.
# Key:
# [1] = Solubility of amantadine HCl in water; assay type: physicochemical; conditions: 160 mg, 240 mg and 320 mg of amantadine HCl
# [2] = cited from earlier work
# plasma proteins = conditions: concentration range of 0.1 to 2.0 μg/mL; cited from earlier work
# [3] = cited from earlier work; remark: listed apart in the source
Compound,solubility in water [1],average elimination half-life ([2]; patients on chronic maintenance hemodialysis),"apparent plasma clearance ([2]; single dose 25 to 75 mg, 7 healthy elderly male volunteers, range 0.06 to 0.17) [mL/min/kg]","half-life ([2]; single dose 25 to 75 mg, 7 healthy elderly male volunteers, range 20 to 41) [h]",bound to plasma proteins (plasma proteins) [%],volume of distribution ([3]; after intravenous administration) [L/kg],reduction of renal clearance of amantadine ([3]; coadministration of quinine or quinidine),administered dose excreted unchanged in urine ([3]; in vivo),metabolism as share of total clearance ([3]; in vivo)
"NC12CC3CC(CC(C3)C1)C2 [amantadine HCl, Amantadine Hydrochloride]",soluble in 250 mL water,–,–,–,–,–,–,–,–
"NC12CC3CC(CC(C3)C1)C2 [Amantadine, amantadine]",–,eight days,1.67 ± 0.67,29 ± 7,67,3 to 8,about 30%,approximately 85%,5-15%
